In article PMC8541911 (Molecular cell, 2021):

What was measured:
Assay type in all cases: cell-based
μ-opioid receptor (μOR) = tested on: μ-opioid receptor (μOR)
[1] = molecular target: mouse μOR receptor (Flag-μOR-2x) (Mus musculus, UniProt P42866, M72T); assay: G protein activation assay; details: Gi1-2-3 and Goa-b activation, HEK293 cells
[2] = molecular target: T1, human μOR receptor fused to YFP (Homo sapiens, UniProt P35372)
[3] = molecular target: T1, human μOR receptor fused to YFP; remark: listed apart in the source
SNAP-μOR receptor = SNAP-μOR receptor (Homo sapiens, UniProt P35372)
Chain of SNAP-μOR receptor (P35372 whole entry): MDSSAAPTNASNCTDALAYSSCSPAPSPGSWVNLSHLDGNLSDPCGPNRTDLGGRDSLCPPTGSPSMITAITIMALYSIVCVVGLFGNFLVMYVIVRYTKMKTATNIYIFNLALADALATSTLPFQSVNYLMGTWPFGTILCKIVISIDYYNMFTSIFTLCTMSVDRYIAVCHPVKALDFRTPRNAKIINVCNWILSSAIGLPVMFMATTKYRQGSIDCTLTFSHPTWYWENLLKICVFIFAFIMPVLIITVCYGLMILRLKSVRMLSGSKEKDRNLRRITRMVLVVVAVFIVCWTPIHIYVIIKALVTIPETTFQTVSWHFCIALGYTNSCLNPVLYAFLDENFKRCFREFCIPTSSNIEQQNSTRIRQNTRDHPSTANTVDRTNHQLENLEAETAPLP

Chain of mouse μOR receptor (Flag-μOR-2x) (P42866 whole entry M72T, the tested form may be a part): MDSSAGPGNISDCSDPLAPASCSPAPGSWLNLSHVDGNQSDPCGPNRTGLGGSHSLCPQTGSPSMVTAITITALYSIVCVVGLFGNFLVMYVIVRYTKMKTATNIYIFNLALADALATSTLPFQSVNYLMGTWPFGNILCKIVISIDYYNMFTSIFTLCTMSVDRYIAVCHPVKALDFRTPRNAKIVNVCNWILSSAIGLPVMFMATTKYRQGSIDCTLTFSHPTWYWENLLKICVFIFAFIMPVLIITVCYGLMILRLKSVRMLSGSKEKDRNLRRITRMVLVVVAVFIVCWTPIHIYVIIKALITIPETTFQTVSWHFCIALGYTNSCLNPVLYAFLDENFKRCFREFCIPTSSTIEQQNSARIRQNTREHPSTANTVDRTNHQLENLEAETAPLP
T1 sequence (P35372 whole entry, the tested form may be a part): as the sequence (P35372 whole entry) above

| Molecule | Classification of agonism and bias (μ-opioid receptor (μOR)) | Agonist behaviour in G protein assays [1] | Recruitment of β-arrestin-1/2 (response) [2] | Recruitment of GRK2/5 (response) [3] | μOR internalization (response) (SNAP-μOR receptor) |
| --- | --- | --- | --- | --- | --- |
| [D-Ala^2, N-Me-Phe^4, Gly^5-ol]-Enkephalin acetate salt [DAMGO] | unbiased full agonists | – | – | – | – |
| C[C@@H](Cc1ccsc1)NC(=O)NC[C@H](Cc1ccc(O)cc1)N(C)C [PZM21] | G protein-biased full agonists | full agonists | – | – | – |
| COc1ccsc1CNCC[C@@]1(c2ccccn2)CCOC2(CCCC2)C1 [oliceridine] | G protein-biased full agonists | full agonists | nearly no response | nearly no response | nearly no response |
